Consider eleven compounds from patent US4077981A, “Certain 1-alkyl-2-dichlorophenyliminopyrrolidines” (Bayer Aktiengesellschaft, priority 1968, dated 1978).

Assay [1] concerns Boophilus microplus, Biarra strain (resistant). In words: In-vitro test for ovicidal effect on ticks (Biarra strain). Particulars: ovicidal only (marked not adulticidal); for Ovicidal effect: 50% inhibition with the stated concentration of active compound: Table 4, concentration giving 50% inhibition; for Ovicidal effect: 100% inhibition with the stated concentration of active compound: Table 4, concentration giving 100% inhibition. On the procedure:
(§1) In-vitro Test for Ovicidal Effect on Ticks
The emulsion concentrate so obtained is diluted with water to the application concentration desired in each case.
After immersion of, in each case, 10 female specimens of the various strains of ticks, the individual ticks are transferred to plastic dishes, the bottom of each of which is covered with a disc of filter paper.

The subject of the next assay is Boophilus, Biarra strain. In words: In-vitro test for adulticidal effect on ticks (24 hours). More on the design: species or system Boophilus microplus. The conditions noted are these: Table 4, after 24 hours, at the concentrations stated. On the procedure:
In addition, the adulticidal effectiveness of the preparation of the given active compound after 24 hours is determined by ascertaining the voluntary movement of limbs and bodies of the immersed adult ticks after stimulation with a fine needle compared with the voluntary movement of limbs and bodies of the untreated adult ticks. The effectiveness is stated in %, 100% meaning that no movements of any kind of the limbs and bodies were any longer detectable, and 0% signifying that the ticks moved limbs and bodies in normal manner.

Assay [2] has as its system Boophilus microplus, Ridgeland strain (resistant). In words: In-vitro test for ovicidal effect on ticks (Ridgeland strain). The conditions noted are these: Table 1b, * Ridgeland strain; for Ovicidal effect: 100% inhibition with the stated concentration of active compound: concentration giving 100% inhibition; for Ovicidal effect: >50% inhibition with the stated concentration of active compound: concentration giving >50% inhibition. On the procedure:
as §1
3 g of the particular active compound are mixed with 7 g of a mixture of equal parts by weight of ethyleneglycol monomethyl ether and nonylphenyl polyglycol ether. The emulsion concentrate so obtained is diluted with water to the application concentration desired in each case.
Adult, fully engorged female ticks of the species Boophilus microplus (resistant) are immersed for 1 minute in this preparation of the given active compound. After immersion of, in each case, 10 female specimens of the various strains of ticks, the individual ticks are transferred to plastic dishes, the bottom of each of which is covered with a disc of filter paper. As a control, similar ticks of a normally sensitive strain are treated in exactly the same manner.
After 35 days, the effectiveness of the preparation of the given active compound is determined by ascertaining the inhibition of the depositing of fertile eggs compared with the egg depositing of untreated control ticks. The effect is stated in %, 100% meaning that fertile eggs ceased to be deposited, and 0% signifying that the ticks have deposited eggs in normal manner like the untreated control ticks.

Take `C=CCN1CCCC1=Nc1cc(Cl)ccc1Cl`: in assay [1], the “Ovicidal effect: 50% inhibition with the stated concentration of active compound” value (shortened to “Ovicidal effect: 50% inhibition”) was 0.03 % by weight and the “Ovicidal effect: 100% inhibition with the stated concentration of active compound” value (“Ovicidal effect: 100% inhibition” for short) turned out to be 0.1 % by weight. Moreover, the Adulticidal effect entry in the assay with Boophilus, Biarra strain is reported as “not adulticidal”.
Take `C=CCN1CCCC1=Nc1cccc(Cl)c1Cl`: in assay [1], the “Ovicidal effect: 50% inhibition” value turned out to be 0.008 % by weight and the “Ovicidal effect: 100% inhibition” value is 0.01 % by weight. Further, the Adulticidal effect entry in the assay with Boophilus, Biarra strain is “not adulticidal”.
For `CCCCN1CCCC1=Nc1ccc(F)cc1Cl`, in that order: 0.01 % by weight, 0.03 % by weight and “not adulticidal”.
For the compound `C=CCN1CCCC1=Nc1ccc(F)cc1Cl`, in assay [1], the “Ovicidal effect: 50% inhibition” value was found to be 0.03 % by weight and the “Ovicidal effect: 100% inhibition” value is 0.1 % by weight. In addition, in the assay on Boophilus, Biarra strain, the Adulticidal effect entry was “not adulticidal”.
Turning to `CCCN1CCCC1=Nc1ccc(F)cc1Cl`, in assay [1], the “Ovicidal effect: 50% inhibition” value worked out at 0.03 % by weight and the “Ovicidal effect: 100% inhibition” value stood at 0.1 % by weight. Also, the Adulticidal effect entry in the assay on Boophilus, Biarra strain is “not adulticidal”.
Regarding `C=CCN1CCCC1=Nc1cc(Cl)c(Cl)cc1Cl`, in assay [1], the “Ovicidal effect: 50% inhibition” value was found to be 0.02 % by weight and the “Ovicidal effect: 100% inhibition” value is recorded as 0.03 % by weight. Moreover, the Adulticidal effect entry with Boophilus, Biarra strain is “not adulticidal”.
Regarding `CC=CCN1CCCC1=Nc1ccc(Cl)cc1Cl`, in assay [1], the “Ovicidal effect: 50% inhibition” value is 0.03 % by weight and the “Ovicidal effect: 100% inhibition” value worked out at 0.01 % by weight. Moreover, in the assay with Boophilus, Biarra strain, the Adulticidal effect entry is recorded as “not adulticidal”.
Turning to `CC=CCN1CCCC1=Nc1ccc(Br)cc1CC`, in assay [1], the “Ovicidal effect: 50% inhibition” value was 0.05 % by weight and the “Ovicidal effect: 100% inhibition” value came to 0.1 % by weight. For the same compound, the Adulticidal effect entry in the assay on Boophilus, Biarra strain is given as “not adulticidal”.
For the compound `C=CCN1CCCC1=Nc1ccc(Cl)cc1C`, in assay [1], the “Ovicidal effect: 50% inhibition” value was 0.02 % by weight and the “Ovicidal effect: 100% inhibition” value worked out at 0.03 % by weight. In addition, in the assay with Boophilus, Biarra strain, the Adulticidal effect result is given as “not adulticidal”.
With `CCCN1CCCC1=Nc1ccc(Cl)cc1C` [Compound 211], in assay [2], the “Ovicidal effect: 100% inhibition” value is given as 0.1 % by weight and the “Ovicidal effect: >50% inhibition with the stated concentration of active compound” value came out at 0.03 % by weight.
In the case of `Cc1cc(Cl)ccc1N=C1CCCN1C(C)C` [Compound 241], in assay [2], the “Ovicidal effect: 100% inhibition” value came out at 1.0 % by weight and the “Ovicidal effect: >50% inhibition with the stated concentration of active compound” value came to 0.3 % by weight.
